“And” between values parts separate entries of the source, which are not always exact repeats. Equal entries are not always repeated.
How the values were obtained:
[1] = 101 kPa, Liquid
[2] = xn = mol fraction of the nth substance listed; conditions: 101 kPa, Liquid

O=Cc1ccccc1 [benzaldehyde]
[1]
Conditions	mass density	speed of sound	viscosity
303.15 K	1031.7 kg/m3 and 1035.7 kg/m3	1452 m/s	1.32 mPa·s
308.15 K	1031.3 kg/m3	1428 m/s and 1428.8 m/s	1.249 mPa·s and 1.249 mPa·s
313.15 K	1028 kg/m3	1413 m/s	1.242 mPa·s and 1.241 mPa·s

O=[N+]([O-])c1ccccc1 [nitrobenzene]
[1]
Conditions	mass density [kg/m3]	speed of sound [m/s]	viscosity [mPa·s]
303.15 K	1189.6	1407	1.618
308.15 K	1189.4	1361	1.618
313.15 K	1187.2	1326	1.61

O=Cc1ccccc1 [benzaldehyde] + Clc1ccccc1
[2]
Conditions	mass density, 303.15 K [kg/m3]	mass density, 308.15 K [kg/m3]	mass density, 313.15 K [kg/m3]	speed of sound, 303.15 K [m/s]	speed of sound, 308.15 K [m/s]	speed of sound, 313.15 K [m/s]	viscosity, 303.15 K [mPa·s]	viscosity, 308.15 K [mPa·s]	viscosity, 313.15 K [mPa·s]
x1 = 0.1006	1084.3	1082	1077.9	1265	1241	1235	0.7984	0.7805	0.7641
x1 = 0.2011	1081.4	1079.1	1075	1282	1258	1249	0.8332	0.8123	0.7949
x1 = 0.3015	1077.2	1075	1070.2	1299	1277	1267	0.8814	0.8532	0.8407
x1 = 0.4017	1071.9	1070.3	1065.2	1318	1296	1286	0.9297	0.905	0.8891
x1 = 0.5017	1066.5	1065.2	1059.9	1337	1316	1305	0.9803	0.9559	0.9425
x1 = 0.6017	1060.9	1059.8	1054.6	1356	1337	1325	1.029	1.009	0.9925
x1 = 0.7015	1055	1053.8	1049.1	1376	1358	1345	1.082	1.061	1.045
x1 = 0.8011	1048.5	1047.5	1043.3	1397	1380	1366	1.134	1.118	1.099
x1 = 0.9006	1041.6	1040.8	1036.9	1418	1403	1387	1.196	1.184	1.163
x1 = 1	1031.7	1031.3	1028	1452	1428	1413	1.32	1.249	1.242

From the NIST ThermoML archive (doi:10.1007/s10765-013-1492-1)
